Source: patent publication US20200222474A1, “COMPOSITIONS AND METHODS FOR INCREASING PHYTOCHEMICAL BIOAVAILABLITY AND BIOACTIVITY” (North Carolina State University, priority 2017, published 2020)

System: L. acidophilus NCFM
Assay: RNA-seq transcriptional analysis of L. acidophilus NCFM growing on plant glycosides
Type: cell-based, Lactobacillus acidophilus
[1] = LBA1481 D-ribose-binding protein precursor, COG G
[2] = LBA1482 Ribose ABC transporter, COG G
[3] = LBA1483 Ribose ABC transporter ATP binding protein, COG G
[4] = LBA1484 D-ribose pyranase, COG G
[5] = LBA1494 Lincomycin-resistance protein, COG GEPR
[6] = LBA1607 Phosphatidylserine decarboxylase precursor, COG I
[7] = LBA1632 NAD-dependent aldehyde dehydrogenase, COG C
[8] = LBA1653 Nicotinamide mononucleotide, COG H
[9] = LBA1684 Putative PTS system IIA component, COG G
[10] = LBA1689 Maltose-6′-phosphate Oucosidase, COG G
[11] = LBA1700 Transcriptional regulator-type, COG K
[12] = LBA1701 Melibiose operon regulatory protein, COG K
[13] = LBA1705 PTS system IIBC component, COG G
[14] = LBA1708 Transcriptional antiterminator, COG K
[15] = LBA1710 Thermostable pullulanase, COG G
[16] = LBA1812 Alpha-glucosidase II, COG G
[17] = LBA1870 Maltose phosphorylase, COG G
[18] = LBA1872 Oligo-1,6-glucosidase, COG G
[19] = LBA1955 Transcription regulator family protein, COG K
[20] = gene LBA0046 (Hypothetical protein)
[21] = gene LBA0149 (Putative nucleotide-binding protein)
[22] = gene LBA0263 (Hypothetical protein)

SMILES: O=c1ccc2cc(O[C@@H]3O[C@H](CO)[C@@H](O)[C@H](O)[C@H]3O)c(O)cc2o1 [Esculin]
- Transcripts per million (rpm) (LBA1468 Beta-galactosidase small subunit, COG G): 38.7 rpm
- Log2 differential normalized TPM ratio compared to glucose [1]: 0.9
- Log2 differential normalized TPM ratio compared to lactose [1]: 0.1
- Transcripts per million (rpm) [1]: 9.2 rpm
- Log2 differential normalized TPM ratio compared to glucose [2]: 1
- Log2 differential normalized TPM ratio compared to lactose [2]: 0
- Transcripts per million (rpm) [2]: 8.1 rpm
- Log2 differential normalized TPM ratio compared to glucose [3]: 0.4
- Log2 differential normalized TPM ratio compared to lactose [3]: −0.7
- Transcripts per million (rpm) [3]: 4.2 rpm
- Log2 differential normalized TPM ratio compared to glucose [4]: 0.4
- Log2 differential normalized TPM ratio compared to lactose [4]: −0.3
- Transcripts per million (rpm) [4]: 5.3 rpm
- Log2 differential normalized TPM ratio compared to glucose (LBA1485 Ribokinase, COG G): −0.3
- Log2 differential normalized TPM ratio compared to lactose (LBA1485 Ribokinase, COG G): −1
- Transcripts per million (rpm) (LBA1485 Ribokinase, COG G): 2.7 rpm
- Log2 differential normalized TPM ratio compared to glucose [5]: 3.6
- Log2 differential normalized TPM ratio compared to lactose [5]: 3.6
- Transcripts per million (rpm) [5]: 69.4 rpm
- Log2 differential normalized TPM ratio compared to glucose [6]: 1.5
- Log2 differential normalized TPM ratio compared to lactose [6]: 0.5
- Transcripts per million (rpm) [6]: 59.5 rpm
- Log2 differential normalized TPM ratio compared to glucose [7]: 3.3
- Log2 differential normalized TPM ratio compared to lactose [7]: 1.5
- Transcripts per million (rpm) [7]: 730.5 rpm
- Log2 differential normalized TPM ratio compared to glucose [8]: 2
- Log2 differential normalized TPM ratio compared to lactose [8]: 1.4
- Transcripts per million (rpm) [8]: 996.7 rpm
- Log2 differential normalized TPM ratio compared to glucose [9]: 2.9
- Log2 differential normalized TPM ratio compared to lactose [9]: 1
- Transcripts per million (rpm) [9]: 98.9 rpm
- Log2 differential normalized TPM ratio compared to glucose [10]: 1.8
- Log2 differential normalized TPM ratio compared to lactose [10]: 0.3
- Transcripts per million (rpm) [10]: 12.7 rpm
- Log2 differential normalized TPM ratio compared to glucose [11]: 1.5
- Log2 differential normalized TPM ratio compared to lactose [11]: 1
- Transcripts per million (rpm) [11]: 61.9 rpm
- Log2 differential normalized TPM ratio compared to glucose [12]: 4.9
- Log2 differential normalized TPM ratio compared to lactose [12]: 4.1
- Transcripts per million (rpm) [12]: 1259.8 rpm
- Log2 differential normalized TPM ratio compared to glucose [13]: 2.2
- Log2 differential normalized TPM ratio compared to lactose [13]: 1.3
- Transcripts per million (rpm) [13]: 15.9 rpm
- Log2 differential normalized TPM ratio compared to glucose [14]: 1.4
- Log2 differential normalized TPM ratio compared to lactose [14]: 0
- Transcripts per million (rpm) [14]: 1.6 rpm
- Log2 differential normalized TPM ratio compared to glucose [15]: 0.3
- Log2 differential normalized TPM ratio compared to lactose [15]: −0.1
- Transcripts per million (rpm) [15]: 9.6 rpm
- Log2 differential normalized TPM ratio compared to glucose (LBA1723 Transposase, COG L): 0
- Log2 differential normalized TPM ratio compared to lactose (LBA1723 Transposase, COG L): −0.2
- Transcripts per million (rpm) (LBA1723 Transposase, COG L): 55.8 rpm
- Log2 differential normalized TPM ratio compared to glucose [16]: 2.8
- Log2 differential normalized TPM ratio compared to lactose [16]: 0.8
- Transcripts per million (rpm) [16]: 120.6 rpm
- Log2 differential normalized TPM ratio compared to glucose [17]: 0
- Log2 differential normalized TPM ratio compared to lactose [17]: 1.2
- Transcripts per million (rpm) [17]: 109.2 rpm
- Log2 differential normalized TPM ratio compared to glucose (LBA1871 Neopullulanase, COG G): 2.1
- Log2 differential normalized TPM ratio compared to lactose (LBA1871 Neopullulanase, COG G): 1.4
- Transcripts per million (rpm) (LBA1871 Neopullulanase, COG G): 12.2 rpm
- Log2 differential normalized TPM ratio compared to glucose [18]: 1
- Log2 differential normalized TPM ratio compared to lactose [18]: 0.6
- Transcripts per million (rpm) [18]: 6.3 rpm
- Log2 differential normalized TPM ratio compared to glucose (LBA1873 Acetate kinase, COG C): 0.8
- Log2 differential normalized TPM ratio compared to lactose (LBA1873 Acetate kinase, COG C): −0.5
- Transcripts per million (rpm) (LBA1873 Acetate kinase, COG C): 6.4 rpm
- Log2 differential normalized TPM ratio compared to glucose (LBA1878 Glycerol kinase, COG C): 2.1
- Log2 differential normalized TPM ratio compared to lactose (LBA1878 Glycerol kinase, COG C): 2
- Transcripts per million (rpm) (LBA1878 Glycerol kinase, COG C): 38 rpm
- Log2 differential normalized TPM ratio compared to glucose [19]: −1.3
- Log2 differential normalized TPM ratio compared to lactose [19]: −0.9
- Transcripts per million (rpm) [19]: 218.2 rpm
- number of up-regulated genes (RNA-seq, compared to glucose): 87 genes
- number of uniquely induced genes (RNA-seq, up-regulated genes not shared with the other PGs): 35
- Log2 differential normalized TPM ratio compared to glucose [20]: 2.2
- Log2 differential normalized TPM ratio compared to lactose [20]: 1.5
- Transcripts per million (rpm) [20]: 1439.6 rpm
- Log2 differential normalized TPM ratio compared to glucose [21]: 1.4
- Log2 differential normalized TPM ratio compared to lactose [21]: 0.6
- Transcripts per million (rpm) [21]: 1325.7 rpm
- Log2 differential normalized TPM ratio compared to glucose [22]: 1.8
- Log2 differential normalized TPM ratio compared to lactose [22]: 1.1
- Transcripts per million (rpm) [22]: 59.9 rpm
